Values after ≈ are worked out from the molar mass of the structure shown. Like-named read-outs stand apart in the source and are kept apart here. Bridge positions count the residues as written; N and C are the ends. Square brackets hold non-standard residues; d marks the D form. Peptide text beside a SMILES is read from it. R5 = C=CCCC[C@@](C)(N)C(=O)O
Assays:
Enterobacter aerogenes = assay: microbe, parasite or virus in culture; format: cell-based; settings: MHB medium
Protocol: (§1) The antimicrobial assay was performed according to a modified National Committee for Clinical Laboratory Standards (NCCLS) protocol ([41], [42]). Briefly, 5 × 10^5 CFU/mL bacterial cells were treated with various peptide concentrations and incubated at 37 ± 2°C for 16 to 20 h. The lowest concentration with clear wells was recorded as the MIC for each test molecule. The clear wells were further plated in Mueller-Hinton agar (MHA) plates, followed by incubation overnight at 37 ± 2°C. After plating, the lowest concentration at which no growth was observed was recorded as the MBC. For the serum sensitivity assay, the antimicrobial activity of the peptides was tested in medium containing 50% human serum ([43], [44]).

Escherichia coli = assay: microbe, parasite or virus in culture; format: cell-based
Protocol: as §1

[1] = test system: NDM-1 Klebsiella pneumoniae; assay: microbe, parasite or virus in culture; format: cell-based
Protocol: as §1

Pseudomonas aeruginosa = assay: microbe, parasite or virus in culture; format: cell-based
Protocol: as §1

Salmonella enterica = assay: microbe, parasite or virus in culture; format: cell-based; settings: MHB medium
Protocol: as §1

MDR A. baumannii 1019 = assay: microbe, parasite or virus in culture; format: cell-based, Acinetobacter baumannii
Protocol: as §1

MDR A. baumannii 1033 = assay: microbe, parasite or virus in culture; format: cell-based, Acinetobacter baumannii; settings: for MBC: read-out: MBC; for MIC: read-out: MIC
Protocol: as §1

MDR A. baumannii 14B0091 = assay: microbe, parasite or virus in culture; format: cell-based, Acinetobacter baumannii
Protocol: as §1

MDR A. baumannii 1607 = assay: microbe, parasite or virus in culture; format: cell-based, Acinetobacter baumannii
Protocol: as §1

MDR A. baumannii 1702 = assay: microbe, parasite or virus in culture; format: cell-based, Acinetobacter baumannii; settings: for MBC: read-out: MBC; for MIC: read-out: MIC
Protocol: as §1

MDR A. baumannii 2088 = assay: microbe, parasite or virus in culture; format: cell-based, Acinetobacter baumannii
Protocol: as §1

MDR A. baumannii 2962 = assay: microbe, parasite or virus in culture; format: cell-based, Acinetobacter baumannii
Protocol: as §1

MDR A. baumannii 2982 = assay: microbe, parasite or virus in culture; format: cell-based, Acinetobacter baumannii
Protocol: as §1

MDR A. baumannii 2997 = assay: microbe, parasite or virus in culture; format: cell-based, Acinetobacter baumannii; settings: for MBC: read-out: MBC; for MIC: read-out: MIC
Protocol: as §1

MDR A. baumannii 2998 = assay: microbe, parasite or virus in culture; format: cell-based, Acinetobacter baumannii
Protocol: as §1

MDR A. baumannii 3618 = assay: microbe, parasite or virus in culture; format: cell-based, Acinetobacter baumannii
Protocol: as §1

MDR A. baumannii 921 = assay: microbe, parasite or virus in culture; format: cell-based, Acinetobacter baumannii
Protocol: as §1

Staphylococcus aureus = format: cell-based
Protocol: as §1

Acinetobacter baumannii = assay: microbe, parasite or virus in culture; format: cell-based; settings: for MBC: read-out: MBC; for MIC: read-out: MIC
Protocol: as §1, with “[44]). The antimicrobial assay was performed in the presence of physiological ions and glucose. The test media were supplemented with MgCl2 (1 mM), CaCl2 (2 mM), NaCl (150 mM), KCl (4.5 mM), NH4Cl (6 μM) ([45], [46]), or glucose (0.2%) ([47]), followed by routine antimicrobial assay as described previously. For the pH sensitivity assay, the antimicrobial assay was performed in media adjusted to pH values ranging from 4 to 12. To estimate the effects of temperature on antimicrobial activity, the peptide was incubated for 1 h at temperatures ranging from 40 to 100°C ([48]), followed by the antimicrobial assay as described above.” for “[44]).”

human red blood cells = format: cell-based
Protocol: The hemolytic assay was performed after approval from the institutional ethics committee (Academia Sinica Institutional Review Board [IRB]; ID no. AS-IRB02-111075). Blood was collected from healthy humans, and 50 μL of a 2% blood cell suspension in normal saline was treated with an equal volume of peptide at different concentrations. The mixture was then incubated at 37 ± 2°C for 1 h. Next, the cell suspension was centrifuged at 1,000 × g for 10 min. Percent hemolysis was estimated by the absorbance of treated and control supernatant samples at 540 nm ([23], [44]).

[2] = HS, 50% human serum containing MHB medium
[3] = HS, MH medium containing 50% human serum
[4] = HS, MH medium containing 50% human serum, read-out: MBC

SMILES: CC[C@H](C)[C@H](NC(=O)[C@H](CCCCN)NC(=O)[C@H](CCC(=O)O)NC(=O)[C@H](CCCCN)NC(=O)[C@H](CO)NC(=O)[C@H](CCCCN)NC(=O)[C@H](CCCNC(=N)N)NC(=O)[C@H](Cc1ccccc1)NC(=O)[C@H](Cc1ccccc1)NC(=O)[C@H](CC(=O)O)NC(=O)CNC(=O)[C@H](CC(C)C)NC(=O)[C@@H](N)CC(C)C)C(=O)NCC(=O)N[C@@H](CCCCN)C(=O)N[C@@H](CCC(=O)O)C(=O)N[C@@H](Cc1ccccc1)C(=O)N[C@@H](CCCCN)C(=O)N[C@@H](CCCNC(=N)N)C(=O)N[C@H](C(=O)N[C@H](C(=O)N[C@@H](CCC(N)=O)C(=O)N[C@@H](CCCNC(=N)N)C(=O)N[C@H](C(=O)N[C@@H](CCCCN)C(=O)N[C@@H](CC(=O)O)C(=O)N[C@@H](Cc1ccccc1)C(=O)N[C@@H](CC(C)C)C(=O)N[C@@H](CCCNC(=N)N)C(=O)N[C@@H](CC(N)=O)C(=O)N[C@@H](CC(C)C)C(=O)N[C@H](C(=O)N1CCC[C@H]1C(=O)N[C@@H](CCCNC(=N)N)C(=O)N[C@H](C(=O)N[C@@H](CCC(=O)O)C(=O)N[C@@H](CO)C(=O)O)[C@@H](C)O)C(C)C)[C@@H](C)CC)C(C)C)[C@@H](C)CC [LL-37]
- MBC (Enterobacter aerogenes): 6.25 µM (≈ 28.1 µg/mL)
- MIC (Enterobacter aerogenes): 6.25 µM (≈ 28.1 µg/mL)
- MBC (Escherichia coli; [2]): >25 µM
- MIC (Escherichia coli; [2]): >25 µM
- MBC (Escherichia coli; MHB medium): 6.25 µM (≈ 28.1 µg/mL)
- MIC (Escherichia coli; MHB medium): 6.25 µM (≈ 28.1 µg/mL)
- MBC [1, 2]: >25 µM
- MIC [1, 2]: >25 µM
- MBC ([1]; MHB medium): 25 µM (≈ 112 µg/mL)
- MIC ([1]; MHB medium): 25 µM (≈ 112 µg/mL)
- MBC (Pseudomonas aeruginosa; HS, 50% human serum containing MHB medium, read-out: MBC): >25 µM
- MIC (Pseudomonas aeruginosa; HS, 50% human serum containing MHB medium, read-out: MIC): >25 µM
- MBC (Pseudomonas aeruginosa; MHB medium): 6.25−12.5 μM
- MIC (Pseudomonas aeruginosa; MHB medium): 6.25−12.5 μM
- MBC (Salmonella enterica): >25 µM
- MIC (Salmonella enterica): >25 µM
- MBC (MDR A. baumannii 1019; [3]): >25 µM
- MIC (MDR A. baumannii 1019; [3]): >25 µM
- MBC (MDR A. baumannii 1019; MHB medium): 6.25 µM (≈ 28.1 µg/mL)
- MIC (MDR A. baumannii 1019; MHB medium): 6.25 µM (≈ 28.1 µg/mL)
- MBC (MDR A. baumannii 1033; [3]): >25 µM
- MIC (MDR A. baumannii 1033; [3]): >25 µM
- MBC (MDR A. baumannii 1033; MHB medium): 6.25 µM (≈ 28.1 µg/mL)
- MIC (MDR A. baumannii 1033; MHB medium): 6.25 µM (≈ 28.1 µg/mL)
- MBC (MDR A. baumannii 14B0091; [3]): >25 µM
- MIC (MDR A. baumannii 14B0091; [3]): >25 µM
- MBC (MDR A. baumannii 14B0091; MHB medium): 3.13 µM (≈ 14.1 µg/mL)
- MIC (MDR A. baumannii 14B0091; MHB medium): 3.13 µM (≈ 14.1 µg/mL)
- MIC (MDR A. baumannii 1607; [3]): >25 µM
- MBC (MDR A. baumannii 1607; [4]): >25 µM
- MBC (MDR A. baumannii 1607; MHB medium): 3.13 to 6.25 µM
- MIC (MDR A. baumannii 1607; MHB medium): 3.13 µM (≈ 14.1 µg/mL)
- MBC (MDR A. baumannii 1702; [3]): >25 µM
- MIC (MDR A. baumannii 1702; [3]): >25 µM
- MBC (MDR A. baumannii 1702; MHB medium): 3.13 µM (≈ 14.1 µg/mL)
- MIC (MDR A. baumannii 1702; MHB medium): 3.13 µM (≈ 14.1 µg/mL)
- MBC (MDR A. baumannii 2088; [4]): >25 µM
- MIC (MDR A. baumannii 2088; HS, MH medium containing 50% human serum, read-out: MIC): >25 µM
- MBC (MDR A. baumannii 2088; MHB medium): 3.13 to 6.25 µM
- MIC (MDR A. baumannii 2088; MHB medium): 3.13 to 6.25 µM
- MBC (MDR A. baumannii 2962; [3]): >25 µM
- MIC (MDR A. baumannii 2962; [3]): >25 µM
- MBC (MDR A. baumannii 2962; MHB medium): 6.25 µM (≈ 28.1 µg/mL)
- MIC (MDR A. baumannii 2962; MHB medium): 6.25 µM (≈ 28.1 µg/mL)
- MBC (MDR A. baumannii 2982; [3]): >25 µM
- MIC (MDR A. baumannii 2982; [3]): >25 µM
- MBC (MDR A. baumannii 2982; MHB medium): 12.5 µM (≈ 56.2 µg/mL)
- MIC (MDR A. baumannii 2982; MHB medium): 6.25 µM (≈ 28.1 µg/mL)
- MBC (MDR A. baumannii 2997; [3]): >25 µM
- MIC (MDR A. baumannii 2997; [3]): >25 µM
- MBC (MDR A. baumannii 2997; MHB medium): 1.56 µM (≈ 7.01 µg/mL)
- MIC (MDR A. baumannii 2997; MHB medium): 1.56 µM (≈ 7.01 µg/mL)
- MIC (MDR A. baumannii 2998; [3]): >25 µM
- MBC (MDR A. baumannii 2998; [4]): >25 µM
- MBC (MDR A. baumannii 2998; MHB medium): 6.25 to 12.5 µM
- MIC (MDR A. baumannii 2998; MHB medium): 6.25 µM (≈ 28.1 µg/mL)
- MBC (MDR A. baumannii 3618; [3]): >25 µM
- MIC (MDR A. baumannii 3618; [3]): >25 µM
- MBC (MDR A. baumannii 3618; MHB medium): 3.13 µM (≈ 14.1 µg/mL)
- MIC (MDR A. baumannii 3618; MHB medium): 3.13 µM (≈ 14.1 µg/mL)
- MBC (MDR A. baumannii 921; [3]): >25 µM
- MIC (MDR A. baumannii 921; [3]): >25 µM
- MBC (MDR A. baumannii 921; MHB medium): 6.25 µM (≈ 28.1 µg/mL)
- MIC (MDR A. baumannii 921; MHB medium): 6.25 µM (≈ 28.1 µg/mL)

SMILES: CC[C@H](C)[C@H](NC(=O)[C@@H](NC(=O)[C@@H](NC(=O)[C@@H](N)Cc1ccccc1)[C@@H](C)CC)[C@@H](C)CC)C(=O)N[C@@H](CCCCN)C(=O)N[C@@H](CCCCN)C(=O)N[C@@H](CO)C(=O)NCC(=O)NCC(=O)N[C@@H](CC(C)C)C(=O)N[C@]1(C)CCCC=CCCC[C@](C)(C(=O)NCC(=O)N[C@@H](C)C(=O)N[C@]2(C)CCCC=CCCC[C@](C)(C(=O)N[C@H](C(=O)N[C@@H](CCCCN)C(=O)N[C@@H](CCCCN)C(=O)O)[C@@H](C)CC)NC(=O)[C@H](CCCCN)NC(=O)[C@H](CCCCN)NC(=O)[C@H](CCCCN)NC2=O)NC(=O)[C@H](CCCCN)NC(=O)[C@H](CCCCN)NC(=O)[C@H](CCCCN)NC1=O [TP4-2] (H-FIIIKKSGGL[R5]KKK[R5]GA[R5]KKK[R5]IKK-OH; staple 11-15, 18-22; N-terminus and C-terminus assumed)
- MBC (Staphylococcus aureus): >25 µM
- MIC (Staphylococcus aureus): >25 µM
- MBC (Acinetobacter baumannii): 12.5 µM (≈ 35.5 µg/mL)
- MIC (Acinetobacter baumannii): 12.5 µM (≈ 35.5 µg/mL)
- 15% hemolysis concn (human red blood cells): >100 µM

SMILES: CC[C@H](C)[C@H](NC(=O)[C@@H](NC(=O)[C@@H](N)Cc1ccccc1)[C@@H](C)CC)C(=O)N[C@]1(C)CCCC=CCCC[C@](C)(C(=O)NCC(=O)N[C@@H](CC(C)C)C(=O)N[C@]2(C)CCCC=CCCC[C@](C)(C(=O)NCC(=O)N[C@@H](C)C(=O)N[C@]3(C)CCCC=CCCC[C@](C)(C(=O)N[C@H](C(=O)N[C@@H](CCCCN)C(=O)N[C@@H](CCCCN)C(=O)O)[C@@H](C)CC)NC(=O)[C@H](CCCCN)NC(=O)[C@H](CCCCN)NC(=O)[C@H](CCCCN)NC3=O)NC(=O)[C@H](CCCCN)NC(=O)[C@H](CCCCN)NC(=O)[C@H](CCCCN)NC2=O)NC(=O)[C@H](CO)NC(=O)[C@H](CCCCN)NC(=O)[C@H](CCCCN)NC1=O [TP4-4] (H-FII[R5]KKS[R5]GL[R5]KKK[R5]GA[R5]KKK[R5]IKK-OH; staple 4-8, 11-15, 18-22; N-terminus and C-terminus assumed)
- MBC (Staphylococcus aureus): >25 µM
- MIC (Staphylococcus aureus): >25 µM
- MBC (Acinetobacter baumannii): 12.5 µM (≈ 36.5 µg/mL)
- MIC (Acinetobacter baumannii): 12.5 µM (≈ 36.5 µg/mL)
- 15% hemolysis concn (human red blood cells): >100 µM
